Assay results taken from patent publication US8691815B2, “Substituted oxindole derivatives, drugs containing said derivatives and the use thereof” (AbbVie Deutschland GmbH & Co. KG, priority 2005, dated 2014).
Where a name gives a salt, the structure may show the parent alone.

Assays:
[1] = molecular target: T1, human vasopressin V1b receptor (Homo sapiens, UniProt P47901); assay: Vasopressin V1b receptor binding assay; details: membranes from CHO-K1 cells with stably expressed human V1b receptors, displacement of 1.5 nM 3H-AVP
T1 construct: expressed in transfected cells; host or cells: CHO-K1 (cell line hV1b-3H2_CHO), membrane preparation
T1 sequence (P47901 1-424): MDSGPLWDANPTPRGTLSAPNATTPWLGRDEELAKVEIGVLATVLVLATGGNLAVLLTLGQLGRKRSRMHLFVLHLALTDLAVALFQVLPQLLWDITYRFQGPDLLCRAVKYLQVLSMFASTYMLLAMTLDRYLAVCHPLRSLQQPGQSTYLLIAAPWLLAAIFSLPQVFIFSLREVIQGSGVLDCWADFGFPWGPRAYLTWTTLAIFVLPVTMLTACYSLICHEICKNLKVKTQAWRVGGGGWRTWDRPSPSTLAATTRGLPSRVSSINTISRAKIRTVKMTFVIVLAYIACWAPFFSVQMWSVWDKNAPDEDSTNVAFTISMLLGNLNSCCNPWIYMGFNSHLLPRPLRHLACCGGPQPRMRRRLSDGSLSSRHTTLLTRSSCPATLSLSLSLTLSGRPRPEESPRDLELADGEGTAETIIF
How it was run: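 Membranes were incubated with radioligand for 60 min at room temperature in 50 mM Tris, 10 mM MgCl2, 0.1% BSA, pH 7.4, with 2% DMSO final. Nonspecific binding was defined with 1 uM AVP. Bound ligand was collected by GF/B filtration and counted by scintillation, and binding parameters were derived by nonlinear regression.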

human V1b receptor = molecular target: T2, human V1b receptor (Homo sapiens, UniProt P47901); assay: Effect on vasopressin-induced calcium increase in cells having a cloned human vasopressin receptor; format: cell-based; details: CHO-K1 cells stably transfected with human V1b receptor, Arg-vasopressin 10^-8 M, FLIPR calcium
T2 construct: expressed in transfected cells; host or cells: CHO-K1
T2 sequence (P47901 1-424): T1 sequence (P47901 1-424)
Method: Effect on Vasopressin-induced Calcium Increase in Cells Having a Cloned Human Vasopressin Receptor The functional activity of the test substances was investigated on CHO-K1 cells which were stably transfected with the human V1b receptor. 50 000 cells were seeded in each well of a microtiter plate with 96 wells and incubated in culture medium in a saturated water vapor atmosphere with 5% CO2 at 37° C. overnight. The culture medium consisted of DMEM/Nut Mix F12 with Glutamax I (from Invitrogen), 10% fetal calf serum, 100 units/ml penicillin, 100 μg/ml streptomycin and 800 μg/ml Geneticin. The following day, the cells were washed with culture medium and loaded with a fluorescent dye for calcium in accordance with the manufacturer's statements (Ca^++-Plus-Assay Kit, Molecular Devices). The cells were loaded in the presence of probenzide (1 vol %). The test substances were diluted with culture medium (final concentration 10^−10 to 10^−5M) and incubated with the dye-loaded cells at room temperature for 15 minutes. The Arg-vasopressin (10^−8M) was then added and the maximum fluorescence signal was determined using a FLIPR-96 measuring instrument (Molecular Devices). Concentration-effect plots were constructed using nonlinear regression algorithms (GraphPad Prism 3.0). Kb values were calculated from IC50 values by the method of Cheng and Prusoff (Kb=IC50/1+L/EC50).

| SMILES | Ki [1] | functional antagonist of the human vasopressin V1b receptor (human V1b receptor) |
| --- | --- | --- |
| COc1cc(CN2CCOCC2)ccc1C1(N2CCC[C@H]2C(=O)N(C)C)C(=O)N(S(=O)(=O)c2ccc(F)cc2)c2ccc(Cl)cc21 (stereo partly drawn) [Example 77, (S)-1-[5-Chloro-1-(4-fluorobenzenesulfonyl)-3-(2-methoxy-4-morpholin-4-ylmethyl-phenyl)-2-oxo-2,3-dihydro-1H-indol-3-yl]pyrrolidine-2-dimethylcarboxamide, trifluoroacetic acid salt] | 10 to 100 nM |  |
| COc1ccc(CN2CCCC2)cc1C1(N2CCC[C@H]2C(=O)N(C)C)C(=O)N(S(=O)(=O)c2ccc(C#N)cc2)c2ccc(Cl)cc21 (stereo partly drawn) [Example 96, (S)-1-[5-Chloro-1-(4-cyanobenzenesulfonyl)-3-(2-methoxy-5-pyrrolidin-1-ylmethyl-phenyl)-2-oxo-2,3-dihydro-1H-indol-3-yl]pyrrolidine-2-dimethylcarboxamide] | < 1 nM |  |
| COc1ccc(CN(C)C)cc1C1(N2CCC[C@H]2C(=O)N(C)C)C(=O)N(S(=O)(=O)c2ccc(C#N)cc2)c2ccc(Cl)cc21 (stereo partly drawn) [Example 95, (S)-1-[5-Chloro-1-(4-cyanobenzenesulfonyl)-3-(5-dimethylaminomethyl-2-methoxy-phenyl)-2-oxo-2,3-dihydro-1H-indol-3-yl]pyrrolidine-2-dimethylcarboxamide] | 1 to 10 nM |  |
| COc1ccc(S(=O)(=O)N2C(=O)C(c3ccc(CN4CCN(C)CC4)cc3OC)(N3CCC[C@H]3C(=O)N(C)C)c3cc(Cl)ccc32)cc1 (stereo partly drawn) [Example 69, (S)-1-{5-Chloro-1-(4-methoxybenzenesulfonyl)-3-[2-methoxy-4-(4-methylpiperazin-1-ylmethyl)phenyl]-2-oxo-2,3-dihydro-1H-indol-3-yl}pyrrolidine-2-dimethylcarboxamide, trifluoroacetic acid salt] | < 1 nM |  |
| COc1ccc(S(=O)(=O)N2C(=O)C(c3ccc(CN4CCOCC4)cc3OC)(N3CCC[C@H]3C(=O)N(C)C)c3cc(Cl)ccc32)c(OC)c1 (single isomer, unassigned) [Example 10] | 10 to 100 nM |  |
| COc1ccc(S(=O)(=O)N2C(=O)C(c3cc(CN4CCCCC4)ccc3OC)(N3CCC[C@H]3C(=O)N(C)C)c3cc(Cl)ccc32)c(OC)c1 (stereo partly drawn) [Example 26, (S)-1-[5-Chloro-1-(2,4-dimethoxybenzenesulfonyl)-3-(2-methoxy-5-piperidin-1-yl-methylphenyl)-2-oxo-2,3-dihydro-1H-indol-3-yl]pyrrolidin-2-dimethylcarboxamide trifluoroacetic acid salt] | < 1 nM |  |
| COc1ccc(S(=O)(=O)N2C(=O)C(c3cc(CN(C)C)ccc3OC)(N3CCC[C@H]3C(=O)N(C)C)c3cc(Cl)ccc32)c(OC)c1 (stereo partly drawn) [Example 24, (S)-1-[5-Chloro-1-(2,4-dimethoxybenzenesulfonyl)-3-(5-dimethylaminomethyl-2-methoxyphenyl)-2-oxo-2,3-dihydro-1H-indol-3-yl]pyrrolidine-2-dimethylcarboxamide, trifluoroacetic acid salt] | < 1 nM |  |
| CCN(CC)Cc1ccc(C2(N3CCC[C@H]3C(=O)N(C)C)C(=O)N(S(=O)(=O)c3ccc(OC)cc3)c3ccc(Cl)cc32)c(OC)c1 (stereo partly drawn) [Example 86, (S)-1-[5-Chloro-3-(4-diethylaminomethyl-2-methoxyphenyl)-1-(4-methoxybenzene-sulfonyl)-2-oxo-2,3-dihydro-1H-indol-3-yl]pyrrolidine-2-dimethylcarboxamide, trifluoroacetic acid salt] | < 1 nM |  |
| COc1ccc(S(=O)(=O)N2C(=O)C(c3cc(CN(C)CCCN(C)C)ccc3OC)(N3CCC[C@H]3C(=O)N(C)C)c3cc(Cl)ccc32)cc1 (stereo partly drawn) [Example 23, (S)-1-[5-Chloro-3-(5-{[(3-dimethylaminopropyl)methylamino]methyl}-2-methoxy-phenyl)-1-(4-methoxybenzenesulfonyl)-2-oxo-2,3-dihydro-1H-indol-3-yl]pyrrolidine-2-dimethylcarboxamide, trifluoroacetic acid salt] | < 1 nM |  |
| COc1ccc(S(=O)(=O)N2C(=O)C(c3ccc(CN4CCCC4)cc3OC)(N3CCC[C@H]3C(=O)N(C)C)c3cc(Cl)ccc32)cc1 (single isomer, unassigned) [Example 2] | < 1 nM | functional antagonist |
| COc1ccc(S(=O)(=O)N2C(=O)C(c3ccc(CN4CCCC4)cc3OC)(N3CCC[C@H]3C(=O)N(C)C)c3cc(Cl)ccc32)c(OC)c1 (stereo partly drawn) [Example 1, (S)-1-[5-Chloro-1-(2,4-dimethoxybenzenesulfonyl)-3-(2-methoxy-4-pyrrolidin-1-yl-methylphenyl)-2-oxo-2,3-dihydro-1H-indol-3-yl]-pyrrolidine-2-dimethylcarboxamide, trifluoroacetic acid salt] | < 1 nM |  |
| COCCN(C)Cc1ccc(C2(N3CCC[C@H]3C(=O)N(C)C)C(=O)N(S(=O)(=O)c3ccc(OC)cc3OC)c3ccc(Cl)cc32)c(OC)c1 (stereo partly drawn) [Example 31, (S)-1-[5-Chloro-1-(2,4-dimethoxybenzenesulfonyl)-3-(2-methoxy-4-{[(2-methoxy-ethyl)methylamino]methyl}phenyl)-2-oxo-2,3-dihydro-1H-indol-3-yl]pyrrolidine-2-dimethylcarboxamide] | 1 to 10 nM |  |
| COc1ccc(S(=O)(=O)N2C(=O)C(c3ccc(CNC(C)C)cc3OC)(N3CCC[C@H]3C(=O)N(C)C)c3cc(Cl)ccc32)cc1 (stereo partly drawn) [Example 94, (S)-1-[5-Chloro-3-[4-(isopropylaminomethyl)-2-methoxyphenyl]-1-(4-methoxybenzene-sulfonyl)-2-oxo-2,3-dihydro-1H-indol-3-yl]pyrrolidine-2-dimethylcarboxamide, trifluoroacetic acid salt] | < 1 nM |  |
